Substitutions are numbered along the chain they refer to.
What was measured:
[1] = target: T1, FLT3 R834Q (Homo sapiens, UniProt P36888, R834Q); test: DiscoverX KINOMEscan competition binding, FLT3 R834Q
T1 construct: host or cells: E. coli BL21-derived host (T7 phage) or HEK-293
T1 sequence (P36888 27-993 R834Q): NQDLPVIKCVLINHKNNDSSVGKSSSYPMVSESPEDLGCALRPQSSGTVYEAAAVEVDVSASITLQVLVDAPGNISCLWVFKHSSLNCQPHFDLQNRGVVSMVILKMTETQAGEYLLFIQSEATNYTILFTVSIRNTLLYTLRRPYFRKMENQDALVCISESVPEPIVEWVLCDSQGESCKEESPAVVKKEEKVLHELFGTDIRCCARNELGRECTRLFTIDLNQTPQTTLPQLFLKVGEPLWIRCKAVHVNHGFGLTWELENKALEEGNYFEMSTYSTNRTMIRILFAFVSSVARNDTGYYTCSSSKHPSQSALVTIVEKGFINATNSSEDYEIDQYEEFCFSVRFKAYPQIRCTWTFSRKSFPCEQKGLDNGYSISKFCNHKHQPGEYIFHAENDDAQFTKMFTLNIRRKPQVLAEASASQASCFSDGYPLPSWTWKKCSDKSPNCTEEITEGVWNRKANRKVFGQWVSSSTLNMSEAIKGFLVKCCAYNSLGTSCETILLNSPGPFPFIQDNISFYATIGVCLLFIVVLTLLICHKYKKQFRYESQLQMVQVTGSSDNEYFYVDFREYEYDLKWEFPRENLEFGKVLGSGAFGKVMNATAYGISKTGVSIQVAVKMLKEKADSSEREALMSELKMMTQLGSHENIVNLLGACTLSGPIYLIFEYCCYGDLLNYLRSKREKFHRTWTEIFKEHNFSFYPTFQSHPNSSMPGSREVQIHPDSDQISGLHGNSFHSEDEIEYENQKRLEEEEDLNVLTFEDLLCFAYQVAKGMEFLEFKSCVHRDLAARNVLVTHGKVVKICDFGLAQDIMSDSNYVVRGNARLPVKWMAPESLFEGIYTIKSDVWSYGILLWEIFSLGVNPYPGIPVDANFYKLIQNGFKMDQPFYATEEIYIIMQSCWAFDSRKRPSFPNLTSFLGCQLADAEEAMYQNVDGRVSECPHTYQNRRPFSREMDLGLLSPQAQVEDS
Text: (§1) Kinase binding data were obtained for various exemplary compounds prepared according to Examples 1-24 using the DiscoverX KINOMVIEscan® active site-directed competition binding site-directed assay protocol described below. […] As a result, the data report thermodynamic interaction affinities (Kd values), rather than IC50 values that are dependent on ATP concentrations. The assay uses a DNA-tagged version of the protein kinase, and an immobilized ligand bound to a solid support. Compounds that directly or indirectly prevent kinase binding to the immobilized ligand reduce the amount of kinase captured on the solid support, which is detected using an ultra-sensitive qPCR method. Affinity constants reported from the assay have been reported to be independent of the immobilized ligand used that is coupled to the solid support (See supplemental information in Fabian, M. A. et. al., (2005) Nat. Biotechnol. 23, 329-336; Wodicka, L. M. et. al., (2010) Chem. Biol. 17, 1241-1249.)
(§2) Kinase-tagged T7 phage strains were prepared in an E. coli host derived from the BL21 strain. E. coli were grown to log-phase and infected with T7 phage and incubated with shaking at 32° C. until lysis. The lysates were centrifuged and filtered to remove cell debris. The remaining kinases were produced in HEK-293 cells and subsequently tagged with DNA for qPCR detection. Streptavidin-coated magnetic beads were treated with biotinylated small molecule ligands for 30 minutes at room temperature to generate affinity resins for kinase assays. The liganded beads were blocked with excess biotin and washed with blocking buffer (SeaBlock (Pierce), 1% BSA, 0.05% Tween 20, 1 mM DTT) to remove unbound ligand and to reduce non-specific binding. Binding reactions were assembled by combining kinases, liganded affinity beads, and test compounds in 1× binding buffer (20% SeaBlock, 0.17×PBS, 0.05% Tween 20, 6 mM DTT). Test compounds were prepared as 111× stocks in 100% DMSO. Kds were determined using an 11-point 3-fold compound dilution series with three DMSO control points. All compounds for Kd measurements are distributed by acoustic transfer (non-contact dispensing) in 100% DMSO. The compounds were then diluted directly into the assays such that the final concentration of DMSO was 0.9%. All reactions were performed in polypropylene 384-well plates. Each was a final volume of 0.02 mL. The assay plates were incubated at room temperature with shaking for 1 hour and the affinity beads were washed with wash buffer (1×PBS, 0.05% Tween 20). The beads were then re-suspended in elution buffer (1×PBS, 0.05% Tween 20, 0.5 μM nonbiotinylated affinity ligand) and incubated at room temperature with shaking for 30 minutes. The kinase concentration in the eluates was measured by qPCR.
(§3) Binding constants (Kds) were calculated with a standard dose-response curve using the Hill equation. The Hill Slope was set to −1. Curves were fitted using a non-linear least square fit with the Levenberg-Marquardt algorithm.

[2] = target: T2, FLT3 D835V (Homo sapiens, UniProt P36888, D835V); test: DiscoverX KINOMEscan competition binding, FLT3 D835V
T2 construct: host or cells: E. coli BL21-derived host (T7 phage) or HEK-293
T2 sequence (P36888 27-993 D835V): T1 sequence (P36888 27-993 R834Q) with Q808R, D809V
Text: as §1, §2, §3

SMILES | Kd [1] [nM] | Kd [2] [nM]
FC(F)(F)C1(c2cn3c(-c4cccc(N[C@@H]5CCNC5)n4)cnc3cn2)CC1 [Compound 10, (R)-N-(pyrrolidin-3-yl)-6-(6-(1-(trifluoromethyl)cyclopropyl)imidazo[1,2-a]pyrazin-3-yl)pyridin-2-amine] | 0.81 | 0.083
FC(F)c1cn2c(-c3cccc(N[C@H]4CNC[C@@H]4F)n3)cnc2cn1 [Compound 16, 6-(6-(difluoromethyl)imidazo[1,2-a]pyrazin-3-yl)-N-((3S,4S)-4-fluoropyrrolidin-3-yl)pyridin-2-amine] | 1.3 | 0.066
FC(F)c1cn2c(-c3cccc(N[C@H]4CNCC[C@@H]4F)n3)cnc2cn1 [Compound 25, 6-(6-(difluoromethyl)imidazo[1,2-a]pyrazin-3-yl)-N-((3S,4S)-4-fluoropiperidin-3-yl)pyridin-2-amine] | 0.47 | 0.036
CC(C)(O)c1cn2c(-c3cccc(N[C@@H]4CCCNC4)n3)cnc2cn1 [Compound 30, (R)-2-(3-(6-(piperidin-3-ylamino)pyridin-2-yl)imidazo[1,2-a]pyrazin-6-yl)propan-2-ol] | 4.3 | 0.36
CC(C)(O)c1cn2c(-c3cccc(N[C@H]4CNCC[C@@H]4F)n3)cnc2cn1 [Compound 31, 2-(3-(6-(((3S,4S)-4-fluoropiperidin-3-yl)amino)pyridin-2-yl)imidazo[1,2-a]pyrazin-6-yl)propan-2-ol] | 2.2 | 0.17
FC(F)(F)COc1cn2c(-c3cccc(N[C@@H]4CCNC4)n3)cnc2cn1 [Compound 38, (R)-N-(pyrrolidin-3-yl)-6-(6-(2,2,2-trifluoroethoxy)imidazo[1,2-a]pyrazin-3-yl)pyridin-2-amine] | 1.2 | 0.12

Compounds with a lower Kd [1], results first:

Kd [1] [nM] | Kd [2] [nM] | SMILES
0.17 | 0.015 | CC1(c2cn3c(-c4cccc(N[C@H]5CNC[C@@H]5F)n4)cnc3cn2)CC1 [Compound 1, N-((3S,4S)-4-fluoropyrrolidin-3-yl)-6-(6-(1-methylcyclopropyl)imidazo[1,2-a]pyrazin-3-yl)pyridin-2-amine]
0.14 | 0.023 | CC1(c2cn3c(-c4cccc(N[C@@H]5CCNC5)n4)cnc3cn2)CC1 [Compound 3, (R)-6-(6-(1-methylcyclopropyl)imidazo[1,2-a]pyrazin-3-yl)-N-(pyrrolidin-3-yl)pyridin-2-amine]
0.13 | 0.013 | CC1(c2cn3c(-c4cccc(N[C@H]5CNCC56CC6)n4)cnc3cn2)CC1 [Compound 5, (R)-N-(6-(6-(1-methylcyclopropyl)imidazo[1,2-a]pyrazin-3-yl)pyridin-2-yl)-5-azaspiro[2.4]heptan-7-amine]
0.2 | 0.015 | F[C@H]1CNC[C@@H]1Nc1cccc(-c2cnc3cnc(C4CC4)cn23)n1 [Compound 50, 6-(6-cyclopropylimidazo[1,2-a]pyrazin-3-yl)-N-((3S,4S)-4-fluoropyrrolidin-3-yl)pyridin-2-amine]
0.19 | 0.011 | Cn1cc(-c2cn3c(-c4cccc(N[C@H]5CNC[C@@H]5F)n4)cnc3cn2)cn1 [Compound 52, N-((3S,4S)-4-fluoropyrrolidin-3-yl)-6-(6-(1-methyl-1H-pyrazol-4-yl)imidazo[1,2-a]pyrazin-3-yl)pyridin-2-amine]

— patent US12612410B2 (CHILDREN'S HOSPITAL MEDICAL CENTER, priority 2020, dated 2026)
